Among the data in patent US20060252807A1, “Novel ortho-terphenyl inhibitors of p38 kinase and methods of treating inflammatory disorders” (Kalypsys, Inc., priority 2005, published 2006) are IC50 values, retold here.

The target in the first assay is T1, active p38 alpha enzyme (Upstate Biotechnology) (Homo sapiens, UniProt Q16539).
T1 construct: purchased Upstate Biotechnology
T1 sequence (Q16539 whole entry): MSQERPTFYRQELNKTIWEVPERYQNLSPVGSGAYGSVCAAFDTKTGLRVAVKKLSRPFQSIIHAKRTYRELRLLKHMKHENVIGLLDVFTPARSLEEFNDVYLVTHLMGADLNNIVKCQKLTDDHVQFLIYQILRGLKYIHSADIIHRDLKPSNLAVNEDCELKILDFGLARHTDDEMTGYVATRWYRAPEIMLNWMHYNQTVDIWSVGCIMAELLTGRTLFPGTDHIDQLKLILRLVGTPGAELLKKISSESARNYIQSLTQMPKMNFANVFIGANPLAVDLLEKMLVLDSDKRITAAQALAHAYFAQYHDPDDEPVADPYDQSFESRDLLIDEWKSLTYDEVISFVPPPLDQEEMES
The assay is described as follows: p38α biochemical assay (ATP turnover, luminescent detection, Cambrex PKlight). The settings on record: p38α biochemical assay, Table 1 Biological Activity. Here is the method:
The p38α biochemical assay employed is based on measurement of total ATP turnover following enzyme incubation with substrate in the presence of ATP with the use of a luminescent detection reagent (Cambrex PKlight). The assays were performed in 1536-well white opaque plates.
The final volume was 7.5005 μL as prepared prepared from the addition of 5 ul of kinase reaction (p38 alpah+MapkapK2+ATP) with 0.0005 μL compound dissolved in DMSO, and 2.5 ul of the detection reagent. Assay buffer contains the following reagents to give final concentration in the assay: 200 mM Tris, 100 mM MgCl2, 1.5 mM EGTA, 4 mM CaCl2, 20 mM MOPS, 1 mM EDTA, 1% glycerol, 0.1% B-Mecaptoethanol, and 1 mg/ml BSA. Test compounds are pinned using proprietary pintool technology (Kalypsys, Inc) and delivered as […] amounts into the 5 ul mixture of active p38 alpha enzyme (Upstate Biotechnology) and MapkapK2 (Upstate Biotechnology) whole protein as a substrate for phosphorylation in the presence of 1.4 uM final concentration ATP. Reactions are incubated at 30C for 2 hours and detection reagent is added in 2.5 ul/well amounts. Assay is read using a Perkin Elmer Viewlux.
Turning to `Cc1onc(-c2ccc(Cl)cc2)c1-c1ccn(C(=O)NC(C)C)n1` [Example 2, 3-|3-(4-Chloro-phenyl)-5-methyl-isoxazol-4-yl|-pyrazole-1-carboxylic acid isopropylamide], the half-inhibitory concentration (IC50) is at most 1000 nM.
`CNC(=O)n1ccc(-c2c(-c3ccc(Cl)cc3)noc2C)n1` [Example 3, 3-|3-(4-Chloro-phenyl)-5-methyl-isoxazol-4-yl|-pyrazole-1-carboxylic acid methylamide]: the 50% inhibitory concentration (IC50) is above 1000 nM.
`CCC(C)NC(=O)n1ccc(-c2c(-c3ccc(Cl)cc3)noc2C)n1` (stereo not shown) [Example 4, 3-|3-(4-Chloro-phenyl)-5-methyl-isoxazol-4-yl|-pyrazole-1-carboxylic acid sec-butylamide]: the IC50 was at most 1000 nM.
The compound `Cc1onc(-c2ccc(Cl)cc2)c1-c1ccn(C(=O)NCCO)n1` [Example 5, 3-|3-(4-Chloro-phenyl)-5-methyl-isoxazol-4-yl|-pyrazole-1-carboxylic acid (2-hydroxy-ethyl)-amide] registered an IC50 of at most 1000 nM.
As to `Cc1onc(-c2ccc(Cl)cc2)c1-c1ccn(C(=O)NC(C)CO)n1` (stereo not shown) [Example 6, 3-|3-(4-Chloro-phenyl)-5-methyl-isoxazol-4-yl|-pyrazole-1-carboxylic acid (2-hydroxy-1-methyl-ethyl)-amide], the half-maximal inhibitory concentration (IC50) is at most 1000 nM.
On to `Cc1onc(-c2ccc(Cl)cc2)c1-c1ccn(C(=O)NC2CC2)n1` [Example 7, 3-|3-(4-Chloro-phenyl)-5-methyl-isoxazol-4-yl|-pyrazole-1-carboxylic acid cyclopropylamide], for which the IC50 is above 1000 nM.
Turning to `Cc1onc(-c2ccc(Cl)cc2)c1-c1ccn(C(=O)NC2CCCCC2)n1` [Example 8, 3-|3-(4-Chloro-phenyl)-5-methyl-isoxazol-4-yl|-pyrazole-1-carboxylic acid cyclohexylamide], the IC50 is at most 1000 nM.
`Cc1onc(-c2ccc(Cl)cc2)c1-c1ccn(C(=O)NC2CCCC2)n1` [Example 9, 3-|3-(4-Chloro-phenyl)-5-methyl-isoxazol-4-yl|-pyrazole-1-carboxylic acid cyclopentylamide] showed an IC50 of at most 1000 nM.
`Cc1onc(-c2ccc(Cl)cc2)c1-c1ccn(C(=O)NC2Cc3ccccc3C2)n1` [Example 10, 3-|3-(4-Chloro-phenyl)-5-methyl-isoxazol-4-yl|-pyrazole-1-carboxylic acid indan-2-ylamide] came in with a 50% inhibitory concentration (IC50) above 1000 nM.
In turn, `Cc1onc(-c2ccc(Cl)cc2)c1-c1ccn(C(=O)NCc2ccco2)n1` [Example 11, 3-|3-(4-Chloro-phenyl)-5-methyl-isoxazol-4-yl|-pyrazole-1-carboxylic acid (furan-2-ylmethyl)-amide] returned a 50% inhibitory concentration (IC50) above 1000 nM.
`Cc1onc(-c2ccc(Cl)cc2)c1-c1ccn(C(=O)NCC2CCCO2)n1` (stereo not shown) [Example 12, 3-|3-(4-Chloro-phenyl)-5-methyl-isoxazol-4-yl|-pyrazole-1-carboxylic acid (tetrahydro-furan-2-ylmethyl)-amide] returned an IC50 above 1000 nM.
The compound `Cc1onc(-c2ccc(Cl)cc2)c1-c1ccn(C(=O)N(C)C(C)C)n1` [Example 13, 3-|3-(4-Chloro-phenyl)-5-methyl-isoxazol-4-yl|-pyrazole-1-carboxylic acid isopropyl-methyl-amide] yielded a 50% inhibitory concentration (IC50) above 1000 nM.
Compound `Cc1onc(-c2ccc(Cl)cc2)c1-c1ccn(C(=O)NC(CO)CO)n1` [Example 14, 3-|3-(4-Chloro-phenyl)-5-methyl-isoxazol-4-yl|-pyrazole-1-carboxylic acid (2-hydroxy-1-hydroxymethyl-ethyl)-amide] displayed an IC50 above 1000 nM.
Turning to `Cc1onc(-c2ccc(Cl)cc2)c1-c1ccn(C(=O)NCC(C)C)n1` [Example 15, 3-|3-(4-Chloro-phenyl)-5-methyl-isoxazol-4-yl|-pyrazole-1-carboxylic acid isobutyl-amide], the concentration for half-maximal inhibition (IC50) was at most 1000 nM.
The same measure, in the same setting: then `Cc1onc(-c2ccc(Cl)cc2)c1-c1cc(C)n(C(=O)NC(C)C)n1` [Example 16, 3-|3-(4-Chloro-phenyl)-5-methyl-isoxazol-4-yl|-5-methyl-pyrazole-1-carboxylic acid isopropylamide], with at most 1000 nM.
Compound `Cc1onc(-c2cccc(C(F)(F)F)c2)c1-c1ccn(C(=O)NC(C)C)n1` [Example 19, 3-|5-Methyl-3-(3-trifluoromethyl-phenyl)-isoxazol-4-yl|-pyrazole-1-carboxylic acid isopropylamide] returned an IC50 above 1000 nM.
Compound `Cc1onc(-c2ccc(Cl)cc2)c1-c1ccn(C(=O)CC(C)C)n1` [Example 20, 1-{3-|3-(4-Chloro-phenyl)-5-methyl-isoxazol-4-yl|-pyrazol-1-yl}-3-methyl-butan-1-one] returned a half-maximal inhibitory concentration (IC50) above 1000 nM.
The same measure, in the same setting: under `Cc1onc(-c2ccc(F)cc2Cl)c1-c1ccn(C(=O)NC(C)C)n1` [Example 21, 3-|3-(2-Chloro-4-fluoro-phenyl)-5-methyl-isoxazol-4-yl|-pyrazole-1-carboxylic acid isopropylamide] stands at most 1000 nM.
In turn, `COCc1onc(-c2ccc(Cl)cc2)c1-c1ccn(C(=O)NC(C)C)n1` [Example 22, 3-|3-(4-Chloro-phenyl)-5-methoxymethyl-isoxazol-4-yl|-pyrazole-1-carboxylic acid isopropylamide] yielded a 50% inhibitory concentration (IC50) of at most 1000 nM.
The same measure, in the same setting: then `Cc1onc(-c2ccc(F)c(Cl)c2)c1-c1ccn(C(=O)NC(C)C)n1` [Example 23, 3-|3-(3-Chloro-4-fluoro-phenyl)-5-methyl-isoxazol-4-yl|-pyrazole-1-carboxylic acid isopropylamide], with at most 1000 nM; and `Cc1cc(Cl)ccc1-c1noc(C)c1-c1ccn(C(=O)NC(C)C)n1` [Example 24, 3-|3-(4-Chloro-2-methyl-phenyl)-5-methyl-isoxazol-4-yl|-pyrazole-1-carboxylic acid isopropylamide], with above 1000 nM; and `CC(C)NC(=O)n1ccc(-c2c(-c3ccc(F)cc3)noc2CN(C)C)n1` [Example 25, 3-|5-Dimethylaminomethyl-3-(4-fluoro-phenyl)-isoxazol-4-yl|-pyrazole-1-carboxylic acid isopropylamide], with at most 1000 nM.
In turn, `CC(C)NC(=O)c1csc(-c2c(-c3ccc(F)cc3)noc2CN2CCNCC2)n1` [Example 28, 2-|3-(4-Fluoro-phenyl)-5-piperazin-1-ylmethyl-isoxazol-4-yl|-thiazole-4-carboxylic acid isopropylamide] came in with an IC50 of at most 1000 nM.
On to `CC(C)NC(=O)c1csc(-c2c(-c3ccc(F)cc3)noc2CN(C)C)n1` [Example 29, 2-|5-Dimethylaminomethyl-3-(4-fluoro-phenyl)-isoxazol-4-yl|-thiazole-4-carboxylic acid isopropylamide], for which the IC50 is at most 1000 nM.
On to `CC(C)NC(=O)c1csc(-c2c(-c3ccc(F)cc3)noc2CN2CCCCC2)n1` [Example 30, 2-|3-(4-Fluoro-phenyl)-5-piperidin-1-ylmethyl-isoxazol-4-yl|-thiazole-4-carboxylic acid isopropylamide], for which the half-inhibitory concentration (IC50) is above 1000 nM.
As to `CCOC(=O)N1CCC(NCc2onc(-c3ccc(F)cc3)c2-c2nc(C(=O)NC(C)C)cs2)CC1` [Example 31], the IC50 is above 1000 nM.
For the compound `CC(C)NC(=O)c1csc(-c2c(-c3ccc(F)cc3)noc2CNCCO)n1` [Example 32, 2-{3-(4-Fluoro-phenyl)-5-|(2-hydroxy-ethylamino)-methyl|-isoxazol-4-yl}-thiazole-4-carboxylic acid isopropylamide], the IC50 was above 1000 nM.
On to `COCCNCc1onc(-c2ccc(F)cc2)c1-c1nc(C(=O)NC(C)C)cs1` [Example 33, 2-{3-(4-Fluoro-phenyl)-5-|(2-methoxy-ethylamino)-methyl|-isoxazol-4-yl}-thiazole-4-carboxylic acid isopropylamide], for which the IC50 is above 1000 nM.
Compound `Cc1onc(-c2ccc(F)cc2)c1-c1csc(C(=O)NC(C)C)n1` [Example 34] showed a concentration for half-maximal inhibition (IC50) of at most 1000 nM.
The same measure, in the same setting: under `CC(C)NC(=O)c1csc(-c2c(-c3ccc(F)cc3)noc2C2CCN(C(=O)CO)CC2)n1` [Example 36, 2-{3-(4-Fluoro-phenyl)-5-|1-(2-hydroxy-acetyl)-piperidin-4-yl|-isoxazol-4-yl}-thiazole-4-carboxylic acid isopropylamide] stands at most 1000 nM; under `CC(C)NC(=O)c1coc(-c2c(-c3ccc(F)cc3)noc2C2CCNCC2)n1` [Example 37, 2-|3-(4-Fluoro-phenyl)-5-piperidin-4-yl-isoxazol-4-yl|-oxazole-4-carboxylic acid isopropylamide], at most 1000 nM.

Staying with this assay, now noted: p38α kinase; Table 1 Biological Activity.
“2-|4-(4-Fluoro-phenyl)-5-oxo-2,5-dihydro-isoxazol-3-yl|-thiazole-4-carboxylic acid isopropyl amide [Example 2181]”: the half-maximal inhibitory concentration (IC50) was above 1000 nM.
`COCCOCn1nc(-c2ccc(F)cc2)c(-c2nc(C=NOC)cs2)c1C` (single isomer, unassigned) [Example 2186, 2-|3-(4-Fluoro-phenyl)-1-(2-methoxy-ethoxymethyl)-5-methyl-1H-pyrazol-4-yl|-thiazole-4-carbaldehyde O-methyl-oxime] yielded a half-maximal inhibitory concentration (IC50) above 1000 nM.
Consider `COCCOCn1nc(-c2ccc(F)cc2)c(-c2nc(C=NOC)cs2)c1C` (single isomer, unassigned) [Example 2187, 2-|3-(4-Fluoro-phenyl)-1-(2-methoxy-ethoxymethyl)-5-methyl-1H-pyrazol-4-yl|-thiazole-4-carbaldehyde O-methyl-oxime], for which the IC50 is above 1000 nM.

For orientation: IC50 means the midpoint of a concentration-inhibition curve. Low readings indicate greater potency in that assay, high ones weaker potency in that assay.
